Measured values taken from patent US20240274226A1, “MOLECULAR EVALUATION METHODS” (UNIVERSITY COLLEGE DUBLIN, priority 2021, published 2024).
Several values for one entry are separate records, joined by “and”; a condition that tells them apart may be missing. Identical values can stand only once.

Tests used:
SH-SY5Y-TrkA [1] = assay: Differentiation of TrkA cells, live cell images at 72 hours; details: for Experimentally measured percentage of differentiated cells: SH-SY5Y-TrkA, ligand NGF; for Experiment (biological outcome): SY5Y-TrkA ± NGF
Procedure: SH-SY5Y cells stably expressing TrkA or TrkB receptors were stimulated with 100 ng/ml NGF or BDNF, respectively. Differentiation and proliferation were assessed 72 hours after growth factor treatment.
In FIGS. 35A-F, the live cell images are accompanied by bar plots showing the percentage of differentiated cells. The percentages were obtained by examining three images for each set of conditions, and counting the total number of cells and the number of differentiated cells.
FIG. 52 is a bar plot showing the percentage of differentiated cells for different treatments, measured by counting cells in images and calculating the ratio of differentiated cells to total cells.

SH-SY5Y-TrkA [2] = assay: cSTAR analysis of RPPA perturbation data (STV dot product P, DPD output S), TrkA cells; assay type: cell-based, human; details: ligand NGF, 45 minutes, calculated from RPPA data
From the text: (§1) Thus, we use this dimensionality reduced STV for estimating the network effects and biological outcomes of experimental perturbations. For each perturbation we determine a perturbation vector that connects the centroids of the point clouds that have been obtained before and after the perturbation. This vector changes the cell phenotype when it pushes the centroid of the original point cloud across the plane that separates different cell states, stabilizes a cell state when moving the centroid away from the separation plane, or has no effect when it is (nearly) parallel to the separation plane.
(§2) These outcomes can be quantified by determining the dot product (P) of the perturbation vector and the dimensionality reduced STV.
(§3) For a correct interpretation of perturbation data using the STV, we have to exclude the analytes that composed the modules of our core signaling network. Accordingly, the dimensionality of the molecular dataspace where the STV and perturbation vectors are calculated is reduced from 115 to 70, due to 45 analytes from Table S1A, related to the five proteins flagged in Table S3, being allocated to core network components, leaving the remaining 70 analytes to defined the reduced dimensionality dataspace.
(§4) Let A with the radius-vector {right arrow over (x)}A be the centroid of the point cloud Ai, corresponding to the unperturbed state 1. Let Apert with the radius-vector {right arrow over (x)}Apert be the centroid of the point cloud (Ai^pert), corresponding to the perturbed state 1. Then the perturbation vector is defined as,
(§5) The projection P of the perturbation vector {right arrow over (P)} on the STV ({right arrow over (s)}) is obtained as a dot product of these two vectors,
(§6) In the molecular dataspace, we consider the STV as a vector {right arrow over (s)} of unit length directed from a centroid of a differentiation TrkA point cloud to a centroid of a proliferation TrkB point cloud. We now define the output of the DPD module as the S value,
(§7) In this definition, the direction of the vector {right arrow over (n)}, which is orthogonal to the separation hyperplane, […]. Then, the DPD value (S) is positive for proliferation TrkB points and negative for differentiation TrkA points.
(§8) Using the STV ({right arrow over (s)}), a perturbation vector ({right arrow over (P)}) and the unit length vector ({right arrow over (n)}) orthogonal to the separation hyperplane, we can calculate how the DPD value changes following each inhibitor perturbation. The DPD values, determined for the centroids of unperturbed (A) and perturbed (Apert) states, S and Spert, respectively, are the following (see Eq. 9),
(§9) In order to reconstruct the posterior network, we used the drug perturbations described in Table 1, measuring 10 and 45 minute timepoints in TrkA and TrkB cells stimulated with NGF or BDNF, respectively.

SH-SY5Y-TrkB [3] = assay: Differentiation of TrkB cells, live cell images at 72 hours; assay type: cell-based, human; details: for Experimentally measured percentage of differentiated cells: SH-SY5Y-TrkB, ligand BDNF; for Experiment (biological outcome): SY5Y-TrkB ± BDNF
Procedure: FIG. 45 is a live cell image of TrkB cells stimulated with BDNF taken at 72 hours. FIG. 46 is a live cell image of BDNF-stimulated TrkB cells treated with 0.2 μM Trametinib taken at 72 hours. FIG. 47 is a live cell image of BDNF-stimulated TrkB cells treated with 2.5 μM Gefitinib taken at 72 hours. […] FIG. 49 is an additional experiment, being a live cell image of BDNF-stimulated TrkB cells treated with a combination of 2.5 μM Gefitinib and 0.05 μM Trametinib taken at 72 hours.

SH-SY5Y-TrkB [4] = assay: cSTAR analysis of RPPA perturbation data (STV dot product P, DPD output S), TrkB cells; assay type: cell-based, human; details: for Change in the DPD output ΔS / DPD output S: SH-SY5Y-TrkB, ligand BDNF, 45 minutes, calculated from RPPA data
From the text: as §1, §2
TrkB cells were treated with the p90RSK inhibitor BI-D1870. Data points were acquired corresponding to 45 min 100 ng/ml GF stimulation, and these were projected into the first 3 principal components in order to calculate the point cloud centroids. For clarity, only the centroids are shown in FIG. 7, corresponding to: TrkA 45 minute NGF, TrkB 45 minute BDNF before perturbation, and the perturbed centroid TrkB RSKi 45 minute BDNF.
as §3, §4, §5, §6, §7, §8, §9

TrkA cells = assay: RPPA phosphoproteomics (raw fluorescent intensity) in TrkA cells stimulated with ligand and treated with inhibitors; assay type: cell-based, human
From the text: (§10) Experiments used a custom made RPPA with 115 validated antibodies listed in Table S1A below to interrogate the activities of signaling pathways involved in TrkA/B signaling (Schramm et al., 2005), including MAPK (RAS-ERK, JNK, p38), PI3 kinase (AKT, mTORC1/2), JAK-STAT, PLCγ-PKC, TGFβ-SMAD, Wnt, cyclic-AMP, cell cycle (CDK1, Cyclins, Rb, p53, p21^WAF), apoptosis (BAX, BCL2, BCLx, Caspase 3), transcription factor (MYC, NFκB, JUN), and tyrosine kinase (SRC, EGFR, PDGFR, IGFR) pathways. In addition to the 115 antibodies, three controls are also included, Mouse 1, 2 and 3.
(§11) For each antibody, RPPA phosphoproteomics data was collected, measured as raw fluorescent intensity values in TrkA and TrkB cells stimulated with a ligand and treated with different inhibitors. A sample of the data is reproduced in Table S1B below, showing the measured fluorescent intensity values for a small sample of antibodies and a small sample of treatment and stimulation conditions. The full data set, including replicated experiments, contains 118 rows (one per antibody) and 144 columns (each containing 118 measurements and relating to an experimental set of treatment and stimulation conditions, which include replicated experiments).
(§12) In terms of the computational approach to processing the acquired data, each analyte level was first normalized on the GAPDH level, and then on the value of the same analyte in the absence of inhibitors and ligand stimulation to obtain fold-changes.
(§13) FIGS. 25-30 show the simulated time courses with the experimental data points (dots with error bars) imposed on the model predictions (curves) for a number of inhibitors: S6K inhibitor (1 μM) FIG. 25A-F; TRK inhibitor (5 μM) FIG. 26A-F; MEK inhibitor (0.5 μM) FIG. 27 A-F; AKT inhibitor (1 μM) FIG. 28A-F; JNK inhibitor (1 μM) FIG. 29A-F; and RSK inhibitor (1 μM) FIG. 30A-F. The TrkA and TrkB cells were treated with the respective inhibitor, and stimulated with 100 ng/ml NGF and BDNF, respectively. Dashed lines are the time courses in the absence of inhibitor. Error bars represent SEM and are calculated using 3 biological replicates.

phospho-Trk [5] = assay: Phospho-Trk activity by Western blotting, TrkB cells; assay type: cell-based, human; details: single replicates
Procedure: (§14) These antibodies detect phosphorylation sites that change protein activities or protein abundances. We measured pathway activities in untreated cells and cells treated with NGF (TrkA ligand) or BDNF (TrkB ligand) for 10 or 45 minutes. After normalization we calculated the fold changes in protein phosphorylation levels or abundances producing a data point for each protein.

phospho-Trk [6] = assay: Phospho-Trk activity by Western blotting, TrkA cells; assay type: cell-based, human; details: single replicates
Procedure: as §14

TrkB cells = assay: RPPA phosphoproteomics (raw fluorescent intensity) in TrkB cells stimulated with ligand and treated with inhibitors; assay type: cell-based, human; details: No GF stimulation
From the text: as §10, §11, §12, §13

Molecule | Experimentally measured percentage of differentiated cells (SH-SY5Y-TrkA [1]; 72 hours) | Change in the DPD output ΔS (SH-SY5Y-TrkA [2]) | DPD output S (SH-SY5Y-TrkA [2]) | Experimentally measured percentage of differentiated cells (SH-SY5Y-TrkB [3]; 72 hours) | Change in the DPD output ΔS (SH-SY5Y-TrkB [4]) | DPD output S (SH-SY5Y-TrkB [4]) | Experiment (biological outcome) (SH-SY5Y-TrkA [1]) | other results
CC[n+]1c(/C=C/N(C)c2ccccc2)n(-c2ccccc2)c2ccc(-c3nc4ccccc4s3)cc21.[I-] [AKT inhibitor, AKT inhibitor IV] | 62% ± 3% | −1.3 ± 0.6 | −3.6 ± 0.5 | 34.3% ± 0.8% | −1.5 ± 1.0 | 4.3 ± 0.8 |  | 
CC(=O)Nc1cccc(-n2c(=O)n(C3CC3)c(=O)c3c(Nc4ccc(I)cc4F)n(C)c(=O)c(C)c32)c1 [MEK inhibitor, Trametinib] | 48% ± 3% | −0.7 ± 0.4 | −3.0 ± 0.3 | 20% ± 1% | 0.35 ± 0.72 | 6.1 ± 0.4 | No effect | Bad P Ser112 raw fluorescent intensity (RPPA) (TrkA cells; 45 min NGF stimulation): 0.2853; Bad P Ser136 raw fluorescent intensity (RPPA) (TrkA cells; 45 min NGF stimulation): 0.07024; Bak raw fluorescent intensity (RPPA) (TrkA cells; 45 min NGF stimulation): 0.0709; CrkL P Tyr207 raw fluorescent intensity (RPPA) (TrkA cells; 45 min NGF stimulation): 0.1174; HSP27 (HSPB1) P Ser78 raw fluorescent intensity (RPPA) (TrkA cells; 45 min NGF stimulation): 0.04349; JAK1 raw fluorescent intensity (RPPA) (TrkA cells; 45 min NGF stimulation): 0.0516
Cc1cc(NC(=O)c2cccc(NC(=O)/C=C/CN(C)C)c2)ccc1Nc1nccc(-c2cccnc2)n1 [JNK inhibitor, JNK-IN-8] | 45% ± 5% | −0.07 ± 0.75 | −2.4 ± 0.7 | 25% ± 4% | 0.23 ± 0.82 | 5.95 ± 0.56 | No effect | Experiment (biological outcome) (SH-SY5Y-TrkB [3]): No effect
Oc1c2ccccc2c2c3c(cccc13)N=N2 [Trk inhibitor, SP600125] | 64.4% ± 2.5% | −2.53 ± 0.35 | −4.84 ± 0.16 | 55% ± 4% | −9.6 ± 0.6 | −3.84 ± 0.03 |  | phospho-Trk (phospho-Trk [5]; 10 min ligand stimulation): 3.716 and 1.408; phospho-Trk (phospho-Trk [5]; 45 min ligand stimulation): 3.539; phospho-Trk (phospho-Trk [6]; 10 min ligand stimulation): 0.8871 and 0.6065; phospho-Trk (phospho-Trk [6]; 45 min ligand stimulation): 0.724
CC(C)CCN1c2nc(Nc3cc(F)c(O)c(F)c3)ncc2N(C)C(=O)C1C (stereo not shown) [p90RSK inhibitor, BI-D1870] | 37.0% ± 2.4% | 1.8 ± 0.3 | −0.54 ± 0.13 | 29% ± 4% | −1.7 ± 0.6 | 4.0 ± 0.2 | decreasing differentiation | Experiment (biological outcome) (SH-SY5Y-TrkB [3]): weakly increasing differentiation; Perturbation vector component collinear with the STV (SH-SY5Y-TrkB [4]; TrkB cells, 45 min 100 ng/ml GF stimulation): moves the proliferation state towards differentiation; Bad P Ser112 raw fluorescent intensity (RPPA) (TrkB cells): 0.103; Bad P Ser136 raw fluorescent intensity (RPPA) (TrkB cells): 0.07225; Bak raw fluorescent intensity (RPPA) (TrkB cells): 0.1888; CrkL P Tyr207 raw fluorescent intensity (RPPA) (TrkB cells): 0.2852; HSP27 (HSPB1) P Ser78 raw fluorescent intensity (RPPA) (TrkB cells): 0.3221; JAK1 raw fluorescent intensity (RPPA) (TrkB cells): 0.1064
Cn1cc(-c2ccc(F)c(C(F)(F)F)c2)nc1C1CCN(c2ncnc3[nH]ncc23)CC1 [p70S6K inhibitor, LY2584702] | 41% ± 5% | −1.5 ± 0.4 | −3.8 ± 0.3 | 45% ± 3% | −7.8 ± 0.6 | −2.10 ± 0.05 |  | Bad P Ser112 raw fluorescent intensity (RPPA) (TrkA cells; 10 min NGF stimulation): 0.1181; Bad P Ser136 raw fluorescent intensity (RPPA) (TrkA cells; 10 min NGF stimulation): 0.109; Bak raw fluorescent intensity (RPPA) (TrkA cells; 10 min NGF stimulation): 0.211; CrkL P Tyr207 raw fluorescent intensity (RPPA) (TrkA cells; 10 min NGF stimulation): 0.2814; HSP27 (HSPB1) P Ser78 raw fluorescent intensity (RPPA) (TrkA cells; 10 min NGF stimulation): 0.2939; JAK1 raw fluorescent intensity (RPPA) (TrkA cells; 10 min NGF stimulation): 0.1005
NGF: TrkA ligand, growth factor |  |  |  |  |  |  |  | cell fate after growth factor treatment (SH-SY5Y-TrkA [1]; TrkA cells, 100 ng/ml, 72 hours): differentiation
COc1cc2ncnc(Nc3ccc(F)c(Cl)c3)c2cc1OCCCN1CCOCC1 [Gefitinib] |  |  |  |  |  |  |  | differentiation of TrkB cells (live cell images) (SH-SY5Y-TrkB [3]; BDNF-stimulated, 72 hours, combination 1.25 μM Gefitinib + 0.1 μM Trametinib or 2.5 μM + 0.05 μM, alone 2.5 μM Gefitinib, 0.2 μM Trametinib): not with either inhibitor applied separately
BDNF: TrkB ligand, growth factor (protein, UniProt P23560 19-247, looked up) Neurotrophic factor BDNF …: APMKEANIRGQGGLAYPGVRTHGTLESVNGPKAGSRGLTSLADTFEHVIEELLDEDQKVRPNEENNKDADLYTSRVMLSSQVPLEPPLLFLLEEYKNYLDAANMSMRVRRHSDPARRGELSVCDSISEWVTAADKKTAVDMSGGTVTVLEKVPVSKGQLKQYFYETKCNPMGYTKEGCRGIDKRHWNSQCRTTQSYVRALTMDSKKRIGWRFIRIDTSCVCTLTIKRGR |  |  |  |  |  |  |  | cell fate after growth factor treatment (SH-SY5Y-TrkB [3]; TrkB cells, 100 ng/ml, 72 hours): proliferation
